Earlier results in US20250169750A1 (HEMOLENS DIAGNOSTICS SP. Z O.O., priority 2022, published 2025).

Experiments:
[1] = system: coronary vascular responsiveness to adenosine; details: for coronary conductance change / systemic pressure change: dog, in vivo
[2] = biological target: A2A adenosine receptors (Homo sapiens, UniProt P29274)
Sequence of A2A adenosine receptors (P29274 whole entry): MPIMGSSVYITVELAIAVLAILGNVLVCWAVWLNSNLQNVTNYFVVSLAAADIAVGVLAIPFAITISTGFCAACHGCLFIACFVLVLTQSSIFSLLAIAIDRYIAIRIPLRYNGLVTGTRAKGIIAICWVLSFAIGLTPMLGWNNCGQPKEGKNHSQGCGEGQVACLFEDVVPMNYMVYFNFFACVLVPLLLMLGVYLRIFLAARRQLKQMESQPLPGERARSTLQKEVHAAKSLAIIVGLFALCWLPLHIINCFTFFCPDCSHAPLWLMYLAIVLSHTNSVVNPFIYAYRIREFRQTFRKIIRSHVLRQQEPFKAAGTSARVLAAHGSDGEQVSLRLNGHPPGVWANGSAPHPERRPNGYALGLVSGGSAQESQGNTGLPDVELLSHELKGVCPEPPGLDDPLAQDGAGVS

COC(=O)[C@@H](N)CCCNC(=N)N[N+](=O)[O-] [L-NAME, N^ω-Nitro-L-arginine methyl ester]
change of Adenosine plasma concentration needed to reach 50% of maximal conductivity increase (ED50) ([1]; after 1 mg/kg or 10 mg/kg of L-NAME, vs basal condition): increased three times
coronary conductance change [1]: reduction in coronary conductance
systemic pressure change [1]: increase in systemic pressure

CNC(=O)c1cnn(-c2nc(N)c3ncn([C@@H]4O[C@H](CO)[C@@H](O)[C@H]4O)c3n2)c1 [Regadenoson]
stress myocardial blood flow (MBF), comparison (400 μg bolus vs Dipyridamole 0.56 mg/kg or Adenosine 140 μg/kg/min, 15 healthy volunteers): higher values
heart rate (HR), comparison (400 μg bolus vs Dipyridamole or Adenosine): higher values
stress MBF adjusted to HR, comparison (Regadenoson vs Adenosine): no differences between Adenosine and Regadenoson
stress MPR adjusted to HR, comparison (Regadenoson vs Adenosine): no differences between Regadenoson and Adenosine
unadjusted myocardial perfusion reserve (MPR), comparison (vs Adenosine and Dipyridamole): higher

Nc1nc(N/N=C/C2CCCCC2)nc2c1ncn2[C@@H]1O[C@H](CO)[C@@H](O)[C@H]1O [Binodenoson]
affinity to an Adenosine receptor (comparison) ([2]; APA vs BND): equal
duration of the action ([2]; intravenous bolus): less than 5 minutes

COc1ccc(Cl)cc1C(=O)NCCc1ccc(S(=O)(=O)NC(=O)NC2CCCCC2)cc1 [Glibenclamide]
change of Adenosine ED50 ([1]; after Glibenclamide administration): increased dose-dependently
coronary conductance change [1]: reduction in coronary conductance
systemic pressure change [1]: increase in systemic pressure
